Data as given in PMC9235892 (Virulence, 2022).
Several values for one entry are separate records, joined by “and”; a condition that tells them apart may be missing. Equal values may be shown once. Read-outs that look alike come from different tables or passages of the source.

Tests used:
[1] = system: SARS-CoV-2; experiment: microbe, parasite or virus in culture; type: cell-based; details: for EC50: Severe acute respiratory syndrome coronavirus 2, 60 h, read-out: half maximal effective concentration (EC50), 50% CPE inhibition
[2] = system: SARS-CoV-2; type: cell-based
[3] = system: Vero CCL81 cells
[4] = Pharmacokinetics in mice; type: in vivo, CD1 mice
Protocol: In vivo pharmacokinetics assessment of LNB167 was performed at the Center of Innovation and Preclinical Studies (CIEnP, Brazil) under contract. LNB167 was tested in adult male CD1 mice (n = 5) bred under Specific Pathogen Free conditions at doses of 60 mg/kg (p.o.) or 6 mg/kg (I.V.). Results were reported according to ARRIVE (Animal Research Reporting In Vivo Experiments) [[22–24]]. The pharmacokinetics parameters were determined using the software Phoenix® WinNonlin® (version 7.0).

[5] = system: HEK293T cells; type: cell-based, human
[6] = system: HEK293T; experiment: MTT assay in HEK293T; type: cell-based, human; details: 10 µM and 32 µM
[7] = system: intracellular cholesterol traffic; type: cell-based, African green monkeys
[8] = system: SARS-CoV-2; type: cell-based; remark: listed apart in the source
[9] = system: SARS-CoV-2; type: cell-based; remark: listed apart in the source
[10] = system: SARS-CoV-2; details: in vivo
[11] = system: SARS-CoV-2; type: cell-based; remark: listed apart in the source
[12] = system: SARS-CoV-2 B.1; type: cell-based
[13] = system: SARS-CoV-2; type: cell-based; remark: listed apart in the source
[14] = system: SARS-CoV-2; type: cell-based; remark: listed apart in the source
[15] = Potential toxicity of LNB167 in mice; type: in vivo, FVB male mice; details: oral gavage
Protocol: Adult FVB male mice bred and maintained at the Animal Facility of LOM at LNBio/CNPEM were weighed and divided into three groups (n = 5): vehicle (5% ethanol, 45% PEG400, 5% TWEEN®80, 45% saline), LNB167 60 mg/kg, and LNB167 300 mg/kg. Mice received one dose daily for 6 days by oral gavage. Animals were weighed and monitored daily for signs of potential compound toxicity including loss of movement, ruffled fur, ear position, eye shape, and death.

[16] = system: SARS-CoV-2
[17] = system: HuH7.5; experiment: MTT assay in HuH7.5; type: cell-based, human; details: HuH7.5, 10 µM and 32 µM
[18] = system: Calu-3; experiment: MTT assay in Calu-3; type: cell-based, human; details: Calu-3, 10 µM and 32 µM
[19] = system: Caco-2; experiment: MTT assay in Caco-2; type: cell-based, human; details: Caco-2, 10 µM and 32 µM

In the case of `CCN(CC)CCCC(C)Nc1ccnc2cc(Cl)ccc12` (centres unmarked) [Chloroquine, reference compound], the EC50 [1] is reported as 5.9 µM.
With `C[C@]12CC[C@H](OCCS(=O)(=O)N3CCOCC3)CC1CCC1C2CC[C@]2(C)C(=O)CCC12` (some centres unmarked) [FFNBio41] the “effect on viral load assessed by plaque assay” value (“effect … by plaque assay” for short) [2] was “no effect”, the “toxicity, MTT assay” value [3] was “not cytotoxic” and the EC50 [1] was 5 µM.
With `CN1CCN(C[C@H](O)CO[C@H]2CC[C@@]3(C)C(CCC4C3CC[C@]3(C)C(=O)CCC43)C2)CC1` (some centres unmarked) [LNB167] the bioavailability ([4]; male, CD1, mouse, plasma, oral, 60 mg/kg p.o. (6 mg/kg I.V.)) was 66.3%, the half-life ([4]; male, CD1, mouse, plasma, po, single dose of 60 mg/kg given orally) was 2.67 h and the volume of distribution ([4]; single dose of 60 mg/kg given orally) was 63.17 L/kg. For the same compound, the maximum plasma concentration ([4]; single dose of 60 mg/kg given orally, 60 mg/kg) was 498.69 ng/ml and 1.1 µM, the “up-regulated pathways (RNASeq), SARS-CoV-2-infected cells” value [5] was “upregulation of multiple pathways involving metabolism and biosynthesis of both membrane lipids and cholesterol” and the “up-regulated pathways (RNASeq), non-infected cells” value [5] was “upregulation of membrane lipids and cholesterol metabolic and biosynthetic pathways”. The “toxicity, MTT assay” value [6] was “not toxic”, the “cholesterol distribution, filipin III staining” value [7] was “formation of puncta that were identical to those observed in U18666A-treated cells” and the “effect on levels of viral RNA (RT-qPCR)” value [8] was “did not reduce levels of viral RNA”. The “effect … by plaque assay” value [2] was “potent inhibition of SARS-CoV-2 replication”, the “fold reduction in infectious virus (plaque assay) vs vehicle-treated control” value (“fold reduction in infectious virus” for short) [2] was 1000 fold and the “toxicity, MTT assay” value ([3]; 10 µM and 32 µM, Vero CCL81) was “not cytotoxic”. The EC50 [1] was 0.9 µM, the “fold reduction in viral RNA levels (RT-qPCR) vs vehicle-treated control” value (shortened to “fold reduction in viral RNA levels”) [9] was ~100 fold and the “viral load recovered from infected mouse lungs (plaque assay or RT-qPCR)” value [10] was “did not reduce the viral load”. For the same compound, the “histological analysis of lung sections” value ([10]; mouse) was “alterations in tissue architecture that were more pronounced in the context of SARS-CoV-2 infection”, the “protection from disease development induced by SARS-CoV-2” value ([10]; mouse) was “did not protect from disease development” and the average weight loss ([10]; mouse, 120 mg/kg) was 15%. The “effect on SARS-CoV-2 viral load” value [11] was “no effect”, the “fold reduction in infectious viral progeny (plaque assay), time of addition” value [12] was “up to 100 fold” and the “fold reduction in viral load (RT-qPCR), time of addition” value [12] was “approximately 10 fold”. For the same compound, the “time of addition after infection giving maximum antiviral activity” value [12] was ≤ 8 h, the “fold reduction in viral load (RT-qPCR, viral RNA)” value [13] was ≤ 1000 fold and the “effect on SARS-CoV-2 viral load” value [14] was “no effect”. The signs of toxicity ([15]; 60 mg/Kg once a day for 6 days) was “No signs of toxicity”, the signs of toxicity ([15]; 300 mg/Kg once a day for 6 days) was “moderate weight loss and ruffled fur” and the “virucidal activity against SARS-CoV-2” value [16] was “neither LNB167 nor LNB169 were virucidal”. The “toxicity, MTT assay” value [17] was “not toxic”, the “toxicity, MTT assay” value [18] was “not toxic” and the “toxicity, MTT assay” value [19] was “not toxic”.
In the case of `C[C@]12CC[C@H](OC[C@H](O)CN3CCOCC3)CC1CCC1C2CC[C@]2(C)C(=O)CCC12` (some centres unmarked) [LNB168], the “half maximal effective concentration (EC50), 50% CPE inhibition” value [1] is reported as “mid micromolar range”.
For `C[C@]12CC[C@H](O)CC1CCC1C2CC[C@]2(C)C(=O)[C@H](Br)CC12` (some centres unmarked) [16a-bromoepiandrosterone, reference compound], the “cytoprotective activity against SARS-CoV-2” value [1] was “did not display cytoprotective activity”.
With `C[C@]12CC[C@H](OC(=O)CN3CCOCC3)CC1CCC1C2CC[C@]2(C)C(=O)CCC12` (some centres unmarked) [LNB149] the “half maximal effective concentration (EC50), 50% CPE inhibition” value [1] was “mid micromolar range”.
In the case of `CN1CCN(CC(=O)O[C@H]2CC[C@@]3(C)C(CCC4C3CC[C@]3(C)C(=O)CCC43)C2)CC1` (some centres unmarked) [FFNBio42], the “fold reduction in infectious virus” value [2] is reported as 10 fold, the “toxicity, MTT assay” value [3] is reported as “not cytotoxic” and the EC50 [1] is reported as 4.7 µM. For the same compound, the “fold reduction in viral RNA levels” value [9] was 10 fold.
In the case of `C[C@]12CC[C@H](O)C[C@@H]1CC[C@@H]1[C@@H]2CC[C@]2(C)C(=O)CC[C@@H]12` [Epiandrosterone, reference compound], the “cytoprotective activity against SARS-CoV-2” value [1] is reported as “did not display cytoprotective activity”.
With `C[C@]12CC[C@H](OC[C@@H](O)CN3CCOCC3)CC1CCC1C2CC[C@]2(C)C(=O)CCC12` (some centres unmarked) [LNB166] the “half maximal effective concentration (EC50), 50% CPE inhibition” value [1] was “mid micromolar range”.
For `CN1CCN(C[C@@H](O)CO[C@H]2CC[C@@]3(C)C(CCC4C3CC[C@]3(C)C(=O)CCC43)C2)CC1` (some centres unmarked) [LNB169], the “toxicity, MTT assay” value [6] was “not toxic”, the “effect on levels of viral RNA (RT-qPCR)” value [8] was “did not reduce levels of viral RNA” and the “effect … by plaque assay” value [2] was “potent inhibition of SARS-CoV-2 replication”. The “fold reduction in infectious virus” value [2] was 1000 fold, the “toxicity, MTT assay” value ([3]; 10 µM and 32 µM, Vero CCL81) was “not cytotoxic” and the EC50 [1] was 3.8 µM. The “fold reduction in viral RNA levels” value [9] was ~100 fold, the “effect on SARS-CoV-2 viral load” value [11] was “no effect” and the “fold reduction in infectious viral progeny (plaque assay), time of addition” value [12] was “up to 100 fold”. For the same compound, the “fold reduction in viral load (RT-qPCR), time of addition” value [12] was “approximately 10 fold”, the “time of addition after infection giving maximum antiviral activity” value [12] was ≤ 8 h and the “fold reduction in viral load (RT-qPCR, viral RNA)” value [13] was “approximately 100 fold”. For the same compound, the “effect on SARS-CoV-2 viral load” value [14] was “no effect”, the “virucidal activity against SARS-CoV-2” value [16] was “neither LNB167 nor LNB169 were virucidal” and the “toxicity, MTT assay” value [17] was “not toxic”. For the same compound, the “toxicity, MTT assay” value [18] was “not toxic” and the “toxicity, MTT assay” value [19] was “not toxic”.
In the case of `CCN(CC)CCO[C@H]1CC[C@@]2(C)C(=CC[C@@H]3[C@@H]2CC[C@]2(C)C(=O)CC[C@@H]32)C1.Cl` [U18666A, reference compound], the “cholesterol distribution, filipin III staining” value [7] is reported as “formation of puncta inside cells”.
With `CN1CCN(CCC(=O)O[C@H]2CC[C@@]3(C)C(CCC4C3CC[C@]3(C)C(=O)CCC43)C2)CC1` (some centres unmarked) [LNB171] the “effect … by plaque assay” value [2] was “no effect”, the “toxicity, MTT assay” value [3] was “not cytotoxic” and the “half maximal effective concentration (EC50), 50% CPE inhibition” value [1] was “mid micromolar range”. For the same compound, the “effect on viral load assessed by RT-qPCR” value [9] was “no effect”.
